For data set [1], the target named is T1, human heart chymase (Homo sapiens, UniProt P23946).
T1 sequence (P23946 22-247): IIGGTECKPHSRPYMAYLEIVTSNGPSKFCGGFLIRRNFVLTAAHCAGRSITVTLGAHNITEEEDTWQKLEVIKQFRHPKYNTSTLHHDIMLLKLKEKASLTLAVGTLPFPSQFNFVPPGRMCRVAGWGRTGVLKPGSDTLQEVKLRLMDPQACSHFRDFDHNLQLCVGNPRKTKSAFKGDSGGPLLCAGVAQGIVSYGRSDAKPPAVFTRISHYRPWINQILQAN
As to conditions: read-out: Chymase inhibitive activity (IC50), Ang I substrate, 37° C., 30 min, pH 7.5.
Experimental: (§1) That is, to 10 μl of a 20 mM trisphosphate buffer (pH 7.5) containing 2MKCl were added 10 μl of purified chymase and 5 μl of a dimethylsulfoxide (hereinafter referred to as DMSO) solution of the test sample. The mixture was preincubated at 37° C. for 10 minutes, then 25 μl of a 1 mM Ang I solution was added and the mixture preincubated at 37° C. for 30 minutes. Next, 50 μl of 30% acetic acid was added to stop the enzymatic reaction. At the same time, a blind test was performed by adding, instead of the test sample solution, 5 μl of DMSO and performing the same reaction.
(§2) The reacted solution was subjected to high performance liquid chromatography using Develosil ODS-5 (made by Nomura Kagaku, .phi.4.6 mm×150 mm) and developed at a flow rate of 2.0 ml/min in 0.05% TFA by a straight concentration gradient raising the acetonitrile from 0% to 60% over 10 minutes. This was monitored by the absorbance at 210 nm and the peaks identified by comparison with standard samples of Ang I and Ang II. The peak areas were measured by an integrating meter to quantitatively analyze the Ang I and Ang II and calculate the chymase activity.

Data set [2] concerns the target T2, human neutrophil derived cathepsin G (Homo sapiens, UniProt P08311).
T2 sequence (P08311 21-244 limits assumed): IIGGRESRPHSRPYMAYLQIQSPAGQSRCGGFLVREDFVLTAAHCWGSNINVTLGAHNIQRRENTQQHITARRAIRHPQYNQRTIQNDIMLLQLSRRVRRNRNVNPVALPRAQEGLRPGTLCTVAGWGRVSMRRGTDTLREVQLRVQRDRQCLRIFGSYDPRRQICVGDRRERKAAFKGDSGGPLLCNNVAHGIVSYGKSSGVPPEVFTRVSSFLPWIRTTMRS
Put plainly: Measurement of cathepsin G inhibitive activity (conversion of Ang I to Ang II, HPLC). As to conditions: Ang I substrate, 37° C., 30 min, pH 7.5. It counts as biochemical.

For data set [3], the target named is T3, bovine pancreatic α-chymotrypsin (Bos taurus, UniProt P00766).
T3 construct: purchased Sigma Co. Type II; host or cells: bovine pancreas
Put plainly: Measurement of chymotrypsin inhibitive activity (Ang I, HPLC). Format: biochemical. The settings on record: for IC50: bovine pancreatic α-chymotrypsin, Ang I substrate, 37° C., 15 min, pH 7.5; for inhibition at 100 µM: percent inhibition at 100 μM.

A short description of the next data set: in vivo. The settings on record: mouse, po.
For data set [4], the target named is T1, human heart chymase. Put plainly: biochemical. The settings on record: Chymase inhibitive activity (IC50), Ang I substrate, 37° C., 30 min, pH 7.5.
Experimental: as §1, §2
In another data set the test system is chymase. The settings on record: canine, simian, and human arterial tissue; cited from earlier work.
For data set [5], the system named is vascular restenosis after the operation of PTCA. The settings on record: random multifacility clinical study, Europe, placebo control; cited from earlier work.

Read-outs that look alike come from different tables or passages of the source.

In the case of “3(4-chlorobenzenesulfonyl)-1-phenethyl-2,4(1H,3H)-quinazolinedione [Example 129]”, on human heart chymase [1], the concentration for half-maximal inhibition (IC50) was found to be 3.2 µM.
For `O=c1[nH]c2cc(Cl)ccc2c(=O)n1S(=O)(=O)c1ccc(Cl)cc1` [Example 1, 7-chloro-3-(-4-chlorobenzenesulfonyl)-2,4(1H,3H)-quinazolinedione], the half-inhibitory concentration (IC50) in data set [2] is 0.52 µM; in data set [3], 1.5 µM. In addition, the 50% lethal dose (LD50) at 24 h in “in vivo” is ≥ 1000 mg/kg.
As for `Cc1cccc2[nH]c(=O)n(S(=O)(=O)c3ccc(Cl)cc3)c(=O)c12` [Example 2, 3-(4-chlorobenzenesulfonyl)-5-methyl-2,4(1H,3H)-quinazolinedione], in “in vivo”, the median lethal dose (LD50) at 24 h was ≥ 1000 mg/kg and the selectivity ratio at 24 h was ≥ 50.
As to `CC(C)(C)OC(=O)Cn1c(=O)n(S(=O)(=O)c2ccc(Cl)cc2)c(=O)c2ccc(Cl)cc21` [Example 25, 1-t-butoxycarbonylmethyl-7-chloro-3-(4-chlorobenzenesulfonyl)-2,4(1H,3H)-quinazolinedione], the half-inhibitory concentration (IC50) stood at 37 µM in data set [2] and 6.3 µM on human heart chymase [4]. Moreover, testing at 100 µM in data set [3] gave an inhibition of 34.5%.
The matching figures for `Cn1c(=O)n(S(=O)(=O)c2ccc(Cl)cc2)c(=O)c2ccc(Cl)cc21` [Example 27, 7-chloro-3-(4-chlorobenzenesulfonyl)-1-methyl-2,4(1H,3H)-quinazolinedione]: 16 µM, 7 µM and 27%.
Turning to `O=C(O)Cn1c(=O)n(S(=O)(=O)c2ccc(Cl)cc2)c(=O)c2ccc(Cl)cc21` [Example 29, 1-carboxymethyl-7-chloro-3-(4-chlorobenzenesulfonyl)-2,4(1H,3H)-quinazolinedione], the results for the IC50 (in data set [2]; on human heart chymase [4]) were 14 µM and 3.3 µM, respectively. Further, in data set [3], at 100 µM the inhibition was 46.5%.
On to `O=c1[nH]c2cc(F)ccc2c(=O)n1S(=O)(=O)c1ccc(Cl)cc1` [Example 31, 3-(4-chlorobenzenesulfonyl)-7-fluoro-2,4(1H,3H)-quinazolinedione], for which the values for the IC50 (in data set [2]; at human heart chymase [4]; in data set [3]) were 1.1 µM, 1.7 µM and 5.7 µM, respectively.
`O=c1[nH]c2ccc(F)cc2c(=O)n1S(=O)(=O)c1ccc(Cl)cc1` [Example 33, 3-(4-chlorobenzenesulfonyl)-6-fluoro-2,4(1H,3H)-quinazolinedione]: the IC50 in data set [2] came to 3.6 µM; against human heart chymase [4], 1.9 µM; in data set [3], 4.6 µM.
In the same order, the values of `Cc1ccc(S(=O)(=O)n2c(=O)[nH]c3cc(Cl)ccc3c2=O)cc1` [Example 37, 7-chloro-3-(4-toluenesulfonyl)-2,4(1H,3H)-quinazolinedione] are 1.2 µM, 1.3 µM and 6.1 µM.
`Nc1ncc(NC(=O)Cn2c(=O)n(S(=O)(=O)c3ccc(Cl)cc3)c(=O)c3ccc(Cl)cc32)cn1` [Example 87, [7-chloro-3-(4-chlorobenzenesulfonyl)-2,4(1H,3H)-quinazolinedion-1-yl]-N-(4-(2-aminopyrimidinyl))acetamide]: the IC50 at human heart chymase [1] was 0.13 µM.
As for `O=C(Cn1c(=O)n(S(=O)(=O)c2ccc(Cl)cc2)c(=O)c2ccc(Cl)cc21)Nc1cc[nH]c(=O)n1` [Example 88, [7-chloro-3-(4-chlorobenzenesulfonyl)-2,4(1H,3H)-quinazolinedion-1-yl]-N-cytosinacetamide], at human heart chymase [1], the IC50 was 0.2 µM.
On to `CC(C)C[C@H](NC(=O)[C@@H](NC(=O)N[C@@H](Cc1ccccc1)C(=O)O)[C@@H]1CCN=C(N)N1)C(=O)N[C@H](C=O)Cc1ccccc1` [chymostatin], for which, in the data set with chymase, the “inhibition of the enzymatic activity of chymase, in words” value is on record as “inhibited”.
Regarding `CCOC(=O)[C@H](CCc1ccccc1)N[C@H]1CCCN2CCC[C@@H](C(=O)O)N2C1=O` [cilazapril], the “prophylactic effect on vascular restenosis after PTCA versus placebo” value in data set [5] was “no statistically significant difference”.

A word on the IC50: it is the point on the concentration scale where inhibition reaches its midpoint. One may read the LD50 as the dose at which mortality reaches 50%. Read a low LD50 as a more toxic substance. Broadly, the inhibition is how much of the control response was suppressed. A higher inhibition goes with a response far below the control.
